Data: patent publication US9302012B2, “Anti-bacterial siderophore-aminopenicillin conjugates” (University of Notre Dame Du Lac, priority 2012, dated 2016)
Converted amounts (≈) assume the structure as drawn. Read-outs that look alike come from different tables or passages of the source.

Legend:
P. aeruginosa KW799/61 = test: microbe, parasite or virus in culture; type: cell-based, Pseudomonas aeruginosa; conditions: for Diameter of growth inhibition zones: P. aeruginosa KW799/61
Experimental: All aqueous solutions and media were prepared using distilled, deionized, and filtered water (Millipore Milli-Q Advantage A10 Water Purification System). Luria broth (LB) was purchased from VWR. Mueller-Hinton No. 2 broth (MHII broth; cation adjusted) was purchased from Sigma-Aldrich (St. Louis, Mo.). Iron-deficient (—Fe) MHII broth was prepared by adding 0.8 mL of a 1 mg/mL sterile aq. solution of 2,2′-bipyridine to 49.2 mL of MHII broth. Iron-rich (+Fe) MHII broth was prepared by adding 0.8 mL of a 1 mg/mL sterile aq. solution of FeCl3 to 49.2 mL of MHII broth. Mueller-Hinton No. 2 agar (MHII agar; HiMedia Laboratories) was purchased from VWR. Iron-deficient (−Fe) MHII agar was prepared by adding 0.5 mL of a 1 mg/mL sterile aq. solution of 2,2′-bipyridine to 34 mL of melted MHII agar with gentle mixing. Iron-rich (+Fe) MHII agar was prepared by adding 0.5 mL of a 1 mg/mL sterile aq. solution of FeCl3 to 34 mL of melted MHII agar with gentle mixing.
(§1) Antibacterial Susceptibility Testing by the Agar Diffusion Assay.
Antibacterial activity of the compounds was determined by a modified Kirby-Bauer agar diffusion assay. Overnight cultures of test organisms were grown in LB broth for 18-24 h and standard suspensions of […] were prepared in saline solution (0.9% NaCl) according to a 0.5 BaSO4 McFarland Standard. This standardized suspension (0.1 mL) was added to 34 mL of sterile, melted agar (−Fe or +Fe) tempered to 47-50° C. […] Wells of 9.0 mm diameter were cut from the petri dish agar and filled with exactly 50 μL of the test sample solution. The petri dish was incubated at 37° C. for 18-24 h and the inhibition zone diameters were measured (mm) with an electronic caliper after 24 h.

P. aeruginosa PAO1 = test: Agar diffusion antibacterial susceptibility assay; type: cell-based; conditions: Pseudomonas aeruginosa, PAO1, 24 h, 37° C., read-out: Diameter of growth inhibition zones; for zone of inhibition at 100 µM: 50 μL of 0.1 mM solution; for zone of inhibition at 200 µM: 50 μL of 0.2 mM solution
Experimental: (§2) All liquids and media were sterilized by autoclaving (121° C., 15 min) before use. All aqueous solutions and media were prepared using distilled, deionized, and filtered water (Millipore Milli-Q Advantage A10 Water Purification System). Luria broth (LB) was purchased from VWR. Mueller-Hinton No. 2 broth (MHII broth; cation adjusted) was purchased from Sigma-Aldrich (St. Louis, Mo.). Iron-deficient (—Fe) MHII broth was prepared by adding 0.8 mL of a 1 mg/mL sterile aq. solution of 2,2′-bipyridine to 49.2 mL of MHII broth. Iron-rich (+Fe) MHII broth was prepared by adding 0.8 mL of a 1 mg/mL sterile aq. solution of FeCl3 to 49.2 mL of MHII broth. Mueller-Hinton No. 2 agar (MHII agar; HiMedia Laboratories) was purchased from VWR. Iron-deficient (−Fe) MHII agar was prepared by adding 0.5 mL of a 1 mg/mL sterile aq. solution of 2,2′-bipyridine to 34 mL of melted MHII agar with gentle mixing. Iron-rich (+Fe) MHII agar was prepared by adding 0.5 mL of a 1 mg/mL sterile aq. solution of FeCl3 to 34 mL of melted MHII agar with gentle mixing. See also Wencewicz, T. A. Dissertation, University of Notre Dame, Notre Dame, Ind., 2011, for relevant techniques.
as §1
Antibacterial activity of the compounds was determined by a modified Kirby-Bauer agar diffusion assay. Overnight cultures of test organisms were grown in LB broth for 18-24 h and standard suspensions of […] were prepared in saline solution (0.9% NaCl) according to a 0.5 BaSO4 McFarland Standard. This standardized suspension (0.1 mL) was added to 34 mL of sterile, melted agar (−Fe or +Fe) tempered to 47-50° C. After gentle mixing, the inoculated agar media was poured into a sterile plastic petri dish (145 mm×20 mm) and allowed to solidify near a flame with the lid ajar for about 30 min. Wells of 9.0 mm diameter were cut from the petri dish agar and filled with exactly 50 μL of the test sample solution. The petri dish was incubated at 37° C. for 18-24 h and the inhibition zone diameters were measured (mm) with an electronic caliper after 24 h.

P. aeruginosa Pa6 = test: MIC90 by broth microdilution assay; type: cell-based, Pseudomonas aeruginosa; conditions: for MIC90: P. aeruginosa Pa6, 37° C., 20 h; for activity against Pa6 (MIC assay, in words): exception among wild type strains
Experimental: (§3) ^aMIC90 values (μM) were determined using the broth microdilution method in Mueller-Hinton broth No. 2 (MHII) with visual end point analysis according to the CLSI guidelines (Methods for Dilution Antimicrobial Susceptibility Tests for Bacteria that Grow Aerobically, 8th ed. (Villanova, Pa., USA), Clinical and Laboratory Standards Institute (CLSI), 2009, approved standard document M07-A7). ^bEach compound was tested in triplicate.
as §2
(§4) Determination of MIC90 Values by the Broth Microdilution Assay.
(§5) Antibacterial activity of the compounds was determined by measuring their minimum inhibitory concentrations (MIC90's) using the broth microdilution method according to the Clinical and Laboratory Standards Institute (CLSI, formerly the NCCLS) guidelines. Each well of a 96-well microtiter plate was filled with 50 μL of sterile broth media (−Fe or +Fe). Each test compound was dissolved in DMSO making a 20 mM solution, and then diluted with sterile broth media (−Fe or +Fe) to 400 or 800 μM. Exactly 50 μL of the compound solution was added to the first well of the microtiter plate and 2-fold serial dilutions were made down each row of the plate. Exactly 50 μL of bacterial inoculum (5×10^5 CFU/mL in broth media) was then added to each well giving a total volume of 100 μL/well. The plate was incubated at 37° C. for 20 h and then each well was examined for bacterial growth. The MIC90 was recorded as the lowest compound concentration (μM) required to inhibit 90% of bacterial growth as judged by turbidity of the culture media relative to a row of wells filled with a DMSO standard.

E. coli ATCC 25922 = test: MIC90 by broth microdilution assay; type: cell-based, Escherichia coli; conditions: for MIC90: Escherichia coli, ATCC25922, 20 h, E. coli ATCC 25922, 37° C., 20 h
Experimental: as §3, §2, §4, §5

[1] = tested on: various wild type strains of P. aeruginosa; test: MIC by broth microdilution (text summary over strains); type: cell-based; conditions: Pseudomonas aeruginosa, iron-deficient medium, read-out: MICs against various wild type strains of P. aeruginosa
Experimental: as §2

[2] = −Fe (iron-deficient) MHII broth
[3] = Pseudomonas aeruginosa, +Fe (iron-rich) MHII broth
[4] = Pseudomonas aeruginosa, KW799/61, 24 h, read-out: Diameter of growth inhibition zones, P. aeruginosa KW799/61, +Fe agar, 50 μL of 0.2 mM solution, 37° C., 24 hours
[5] = Pseudomonas aeruginosa, KW799/61, 24 h, read-out: Diameter of growth inhibition zones, P. aeruginosa KW799/61, −Fe agar, 50 μL of 0.2 mM solution, 37° C., 24 hours

SMILES | Diameter of growth inhibition zones (P. aeruginosa KW799/61; +Fe agar, 50 μL of 0.1 mM solution, 37° C., 24 hours) [P] | zone of inhibition at 100 µM (P. aeruginosa KW799/61; Pseudomonas aeruginosa, KW799/61, 24 h, read-out: Diameter of growth inhibition zones, P. aeruginosa KW799/61, −Fe agar, 50 μL of 0.1 mM solution, 37° C., 24 hours) [mm] | zone of inhibition at 100 µM (P. aeruginosa PAO1; +Fe agar) [mm] | zone of inhibition at 100 µM (P. aeruginosa PAO1; −Fe agar) [mm] | MIC90 (P. aeruginosa Pa6; [2]) [µM] | MIC90 (P. aeruginosa Pa6; [3]) [µM] | activity against Pa6 (MIC assay, in words) (P. aeruginosa Pa6) | MIC90 (E. coli ATCC 25922; +Fe (iron-rich) MHII broth) [µM] | MIC90 (E. coli ATCC 25922; [2]) [µM] | increase in activity against E. coli relative to ampicillin (E. coli ATCC 25922; MIC compared with parent drug) [fold] | MIC [1] [µM] | zone of inhibition at 200 µM (P. aeruginosa KW799/61; [4]) [mm] | zone of inhibition at 200 µM (P. aeruginosa KW799/61; [5]) [mm] | zone of inhibition at 200 µM (P. aeruginosa PAO1; +Fe agar) [mm] | zone of inhibition at 200 µM (P. aeruginosa PAO1; −Fe agar) [mm] | activity against permeable mutant (large zones of inhibition, in words) (P. aeruginosa KW799/61; P. aeruginosa permeable mutant K799/61) | Diameter of growth inhibition zones (P. aeruginosa KW799/61; +Fe agar, 50 μL of 0.2 mM solution, 37° C., 24 hours) [P] | potency against E. coli relative to amoxicillin (in words) (E. coli ATCC 25922; MIC compared with parent drug)
CC(=O)Oc1cccc(C(=O)NCCCC(CCCNC(=O)c2cccc(OC(C)=O)c2OC(C)=O)(CCCNC(=O)c2cccc(OC(C)=O)c2OC(C)=O)NC(=O)CCC(=O)NC(C(=O)NC2C(=O)N3C2SC(C)(C)C3C(=O)O)c2ccccc2)c1OC(C)=O (centres unmarked) [Compound 10] | 13 | 21 | 0 | 16 | >200 | > 200 | inactive | 150 (≈ 194 µg/mL) | 1.56 (≈ 2.02 µg/mL) | 8 | 0.05 to 0.39 (≈ 0.0647 to 0.505 µg/mL) | – | – | – | – | – | – | –
CC1(C)S[C@@H]2[C@H](NC(=O)[C@H](N)c3ccccc3)C(=O)N2[C@H]1C(=O)O [Ampicillin, reference compound] | – | – | – | – | >200 | > 200 | – | 16.7 (≈ 5.84 µg/mL) | 12.5 (≈ 4.37 µg/mL) | – | > 100 | 40 | 40 | 0 | 0 | – | – | –
CC1(C)S[C@@H]2[C@H](NC(=O)[C@H](N)c3ccc(O)cc3)C(=O)N2[C@H]1C(=O)O [Amoxicillin, reference compound] | – | – | – | – | >200 | > 200 | – | 4.17 (≈ 1.52 µg/mL) | 4.17 (≈ 1.52 µg/mL) | – | > 100 | 42 | 39 | 0 | 0 | highly active | – | –
CC(=O)Oc1cccc(C(=O)NCCCC(CCCNC(=O)c2cccc(OC(C)=O)c2OC(C)=O)(CCCNC(=O)c2cccc(OC(C)=O)c2OC(C)=O)NC(=O)CCC(=O)NC(C(=O)NC2C(=O)N3C2SC(C)(C)C3C(=O)O)c2ccc(O)cc2)c1OC(C)=O (centres unmarked) [Compound 11] | – | – | – | – | >200 | > 200 | inactive | 100 (≈ 131 µg/mL) | 6.25 (≈ 8.19 µg/mL) | – | 0.05 to 0.39 (≈ 0.0655 to 0.511 µg/mL) | – | 26 | 0 | 19 | – | 13 | almost as equipotent as amoxicillin
